Assay results from patent publication US9266895B2, “Substituted pyrazolo[3,4-d]pyrimidines as kinase inhibitors” (PRINCIPIA BIOPHARMA INC., priority 2012, dated 2016).

Target: BTK (Homo sapiens (Human), UniProt Q06187)
Test: Reversibility of binding (compound in solution by HPLC-MS/MS before and after target perturbation)
Procedure: The following approach was developed to differentiate compounds that form irreversible covalent bond with their targets, such as non-cyano containing acrylamide compounds, from compound that form reversible covalent bond i.e., compounds and/or pharmaceutically acceptable salts of the present disclosure. […] The reactions were then treated with perturbations including both denaturation with 5 M guanidine hydrochloride and digestion with trypsin, disrupting proper folding of the target. […] The concentration of compound in solution was assessed both preceding and following perturbation using high performance liquid chromatography (HPLC) coupled to tandem mass spectrometry.

Chain of BTK (Q06187 whole entry): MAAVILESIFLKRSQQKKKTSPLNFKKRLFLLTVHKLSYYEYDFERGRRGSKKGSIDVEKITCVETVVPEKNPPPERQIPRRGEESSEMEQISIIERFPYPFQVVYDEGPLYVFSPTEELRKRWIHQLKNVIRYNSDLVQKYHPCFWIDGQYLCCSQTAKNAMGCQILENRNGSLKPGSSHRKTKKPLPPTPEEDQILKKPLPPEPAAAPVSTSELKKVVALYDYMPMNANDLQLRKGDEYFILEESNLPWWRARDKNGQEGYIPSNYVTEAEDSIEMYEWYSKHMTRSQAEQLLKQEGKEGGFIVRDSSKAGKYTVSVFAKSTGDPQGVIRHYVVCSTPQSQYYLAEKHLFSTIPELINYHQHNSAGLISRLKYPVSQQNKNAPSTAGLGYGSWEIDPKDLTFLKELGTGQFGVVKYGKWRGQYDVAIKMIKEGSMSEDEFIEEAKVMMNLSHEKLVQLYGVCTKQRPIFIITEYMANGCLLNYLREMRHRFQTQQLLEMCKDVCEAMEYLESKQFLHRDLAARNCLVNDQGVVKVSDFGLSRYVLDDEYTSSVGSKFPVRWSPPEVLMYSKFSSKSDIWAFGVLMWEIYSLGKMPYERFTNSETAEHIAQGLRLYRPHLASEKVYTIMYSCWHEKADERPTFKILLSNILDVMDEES

- Compound in solution in the denatured or digested state? (after 5 M guanidine hydrochloride denaturation or trypsin digestion): yes
- Compound in solution in the native state? (target in excess, native state): no
SMILES: CN(C1COC1)C(C)(C)C=C(C#N)C(=O)N1CCC[C@H]1Cn1nc(-c2ccc(Oc3ccccc3)cc2F)c2c(N)ncnc21 [Example 10, 2-[(2S)-2-[[4-amino-3-(2-fluoro-4-phenoxy-phenyl)pyrazolo[3,4-d]pyrimidin-1-yl]methyl]pyrrolidine-1-carbonyl]-4-methyl-4-[methyl(oxetan-3-yl)amino]pent-2-enenitrile]
